Measurements published in BindingDB's records for doi:10.1021/np070341r (Leibniz-Institute For Natural Product Research and …, 2008).

Biological target: Dual specificity tyrosine-phosphorylation-regulated kinase 1A (Homo sapiens, UniProt Q13627)
Assay: Inhibition of human recombinant DYRK1A

| IC50 [µM] | Structure (SMILES) |
| --- | --- |
| > 100 | COC(=O)[C@@]1(Cc2ccc(O)c(CC=C(C)C)c2)OC(=O)C(=O)C1c1ccc(O)cc1 (stereo partly drawn) [(S)-methyl 4-hydroxy-2-(4-hydroxy-3-(3-methylbut-2-enyl)benzyl)-3-(4-hydroxyphenyl)-5-oxo-2,5-dihydrofuran-2-carboxylate] |
| > 100 | COC(=O)[C@]1(Cc2ccc(OS(=O)(=O)O)c(CC=C(C)C)c2)OC(=O)C(=O)C1c1ccc(O)cc1 (some centres not stated) [butyrolactone I 4''-sulfate] |
